According to PubChem BioAssay AID1963835 (Molecular Pharmacology Branch, DTP, NCI, 2024):

Tested on: 699152-130-R-J1-PDC complex spheroid viability
Assay: Anticancer human tumor 699152-130-R-J1-PDC patient-derived pancreatic carcinoma cell line growth inhibition [POLQ]
Details: for IC50: curve of first compound; for viability, T/C: stronger effect = lower value
How it was run: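 Growth inhibition in 3D: complex spheroids (tumor PDC, HUVEC, MSC) treated with POLQ inhibitor combinations; where Cmax unknown, highest tested concentration 10 microM, except SN-38 at 1 microM.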

[1] = second compound 0.0316 µM, first compound 0.0316 µM
[2] = second compound 0.0316 µM, first compound 0.1 µM
[3] = second compound 0.0316 µM, first compound 0.316 µM
[4] = second compound 0.0316 µM, first compound 1 µM
[5] = second compound 0.0316 µM, first compound 3.16 µM
[6] = second compound 0.0316 µM, first compound 10 µM
[7] = second compound 0.1 µM, first compound 0.0316 µM
[8] = second compound 0.1 µM, first compound 0.1 µM
[9] = second compound 0.1 µM, first compound 0.316 µM
[10] = second compound 0.1 µM, first compound 1 µM
[11] = second compound 0.1 µM, first compound 3.16 µM
[12] = second compound 0.1 µM, first compound 10 µM
[13] = second compound 0.316 µM, first compound 0.0316 µM
[14] = second compound 0.316 µM, first compound 0.1 µM
[15] = second compound 0.316 µM, first compound 0.316 µM
[16] = second compound 0.316 µM, first compound 1 µM
[17] = second compound 0.316 µM, first compound 3.16 µM
[18] = second compound 0.316 µM, first compound 10 µM
[19] = second compound 1 µM, first compound 0.0316 µM
[20] = second compound 1 µM, first compound 0.1 µM
[21] = second compound 1 µM, first compound 0.316 µM
[22] = second compound 1 µM, first compound 1 µM
[23] = second compound 1 µM, first compound 3.16 µM
[24] = second compound 1 µM, first compound 10 µM
[25] = second compound 3.16 µM, first compound 0.0316 µM
[26] = second compound 3.16 µM, first compound 0.1 µM
[27] = second compound 3.16 µM, first compound 0.316 µM
[28] = second compound 3.16 µM, first compound 1 µM
[29] = second compound 3.16 µM, first compound 3.16 µM
[30] = second compound 3.16 µM, first compound 10 µM
[31] = second compound 10 µM, first compound 0.0316 µM
[32] = second compound 10 µM, first compound 0.1 µM
[33] = second compound 10 µM, first compound 0.316 µM
[34] = second compound 10 µM, first compound 1 µM
[35] = second compound 10 µM, first compound 3.16 µM
[36] = second compound 10 µM, first compound 10 µM
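Note: spheroids exposed to agents for 7 days before viability reading.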
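Throughout, for viability, T/C: percent of DMSO vehicle control viability so 100% = vehicle and 0% = no viable signal.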

C=CC(=O)N1CCN(c2nc(=O)n(-c3c(C)ccnc3C(C)C)c3nc(-c4c(O)cccc4F)c(F)cc23)C(C)C1 (stereo not drawn) + Nc1ccc(C#CCN(C(=O)Cc2ncc(C(F)(F)F)cc2C(F)(F)F)c2ccc(F)cc2)nn1
IC50 (second compound 0.0316 µM): > 10 µM | IC50 (second compound 0.1 µM): > 10 µM | IC50 (second compound 0.316 µM): > 10 µM | IC50 (second compound 1 µM): > 10 µM | IC50 (second compound 3.16 µM): > 10 µM | IC50 (second compound 10 µM): > 10 µM | viability, T/C [1]: 99% | viability, T/C [2]: 91.6% | viability, T/C [3]: 102% | viability, T/C [4]: 117% | viability, T/C [5]: 115% | viability, T/C [6]: 103% | viability, T/C [7]: 92.8% | viability, T/C [8]: 89.6% | viability, T/C [9]: 106% | viability, T/C [10]: 116% | viability, T/C [11]: 123% | viability, T/C [12]: 113% | viability, T/C [13]: 102% | viability, T/C [14]: 106% | viability, T/C [15]: 98.8% | viability, T/C [16]: 118% | viability, T/C [17]: 119% | viability, T/C [18]: 97.4% | viability, T/C [19]: 104% | viability, T/C [20]: 105% | viability, T/C [21]: 103% | viability, T/C [22]: 111% | viability, T/C [23]: 124% | viability, T/C [24]: 117% | viability, T/C [25]: 103% | viability, T/C [26]: 125% | viability, T/C [27]: 102% | viability, T/C [28]: 119% | viability, T/C [29]: 114% | viability, T/C [30]: 95.9% | viability, T/C [31]: 110% | viability, T/C [32]: 110% | viability, T/C [33]: 122% | viability, T/C [34]: 109% | viability, T/C [35]: 125% | viability, T/C [36]: 121%

O=C(c1cc(Cc2n[nH]c(=O)c3ccccc23)ccc1F)N1CCN(C(=O)C2CC2)CC1 + Cc1cccc(N(C)C(=O)C2C(O)CCN2c2nc(C)cc(C(F)(F)F)c2C#N)c1
IC50 (second compound 0.0316 µM): > 10 µM | IC50 (second compound 0.1 µM): > 10 µM | IC50 (second compound 0.316 µM): > 10 µM | IC50 (second compound 1 µM): > 10 µM | IC50 (second compound 3.16 µM): > 10 µM | IC50 (second compound 10 µM): > 10 µM | viability, T/C [1]: 91.2% | viability, T/C [2]: 96.4% | viability, T/C [3]: 82.7% | viability, T/C [4]: 96.1% | viability, T/C [5]: 104% | viability, T/C [6]: 69.6% | viability, T/C [7]: 94% | viability, T/C [8]: 104% | viability, T/C [9]: 93.1% | viability, T/C [10]: 94.8% | viability, T/C [11]: 99.5% | viability, T/C [12]: 75.5% | viability, T/C [13]: 88.3% | viability, T/C [14]: 97.1% | viability, T/C [15]: 97.3% | viability, T/C [16]: 111% | viability, T/C [17]: 107% | viability, T/C [18]: 81% | viability, T/C [19]: 103% | viability, T/C [20]: 94.8% | viability, T/C [21]: 92.4% | viability, T/C [22]: 102% | viability, T/C [23]: 87.3% | viability, T/C [24]: 75.7% | viability, T/C [25]: 101% | viability, T/C [26]: 104% | viability, T/C [27]: 91.1% | viability, T/C [28]: 97.1% | viability, T/C [29]: 92.6% | viability, T/C [30]: 72% | viability, T/C [31]: 94.6% | viability, T/C [32]: 90.6% | viability, T/C [33]: 105% | viability, T/C [34]: 84.9% | viability, T/C [35]: 99.1% | viability, T/C [36]: 78.9%

CCc1cc2c(N3CCc4c(cc(Cn5ccnc5)cc4-c4cn(C)nc4C(F)(F)F)C3=O)ccnc2c(OC)n1 + Cc1cccc(N(C)C(=O)C2C(O)CCN2c2nc(C)cc(C(F)(F)F)c2C#N)c1
IC50 (second compound 0.0316 µM): > 10 µM | IC50 (second compound 0.1 µM): > 10 µM | IC50 (second compound 0.316 µM): > 10 µM | IC50 (second compound 1 µM): > 10 µM | IC50 (second compound 3.16 µM): > 10 µM | IC50 (second compound 10 µM): > 10 µM | viability, T/C [1]: 80% | viability, T/C [2]: 90.4% | viability, T/C [3]: 105% | viability, T/C [4]: 114% | viability, T/C [5]: 103% | viability, T/C [6]: 95% | viability, T/C [7]: 75.8% | viability, T/C [8]: 89.3% | viability, T/C [9]: 88.1% | viability, T/C [10]: 94.2% | viability, T/C [11]: 97.3% | viability, T/C [12]: 94.9% | viability, T/C [13]: 86.7% | viability, T/C [14]: 101% | viability, T/C [15]: 91.5% | viability, T/C [16]: 102% | viability, T/C [17]: 103% | viability, T/C [18]: 93.6% | viability, T/C [19]: 101% | viability, T/C [20]: 93% | viability, T/C [21]: 98.7% | viability, T/C [22]: 86.8% | viability, T/C [23]: 105% | viability, T/C [24]: 91.7% | viability, T/C [25]: 99.2% | viability, T/C [26]: 94.5% | viability, T/C [27]: 98.4% | viability, T/C [28]: 95.1% | viability, T/C [29]: 90.9% | viability, T/C [30]: 99.8% | viability, T/C [31]: 85.6% | viability, T/C [32]: 93.1% | viability, T/C [33]: 92.5% | viability, T/C [34]: 94.7% | viability, T/C [35]: 95.1% | viability, T/C [36]: 95.5%

CC1COCCN1c1cc(-c2ccnn2C)c2ccnc(-c3ccn[nH]3)c2n1 (stereo not drawn) + COC1C(OC(N)=O)C(O)C(Oc2ccc3c(O)c(NC(=O)c4ccc(O)c(CC=C(C)C)c4)c(=O)oc3c2C)OC1(C)C
IC50 (second compound 0.0316 µM): > 10 µM | IC50 (second compound 0.1 µM): > 10 µM | IC50 (second compound 0.316 µM): 8.54 µM | IC50 (second compound 1 µM): > 10 µM | IC50 (second compound 3.16 µM): > 10 µM | IC50 (second compound 10 µM): > 10 µM | viability, T/C [1]: 94.7% | viability, T/C [2]: 101% | viability, T/C [3]: 71.5% | viability, T/C [4]: 57.2% | viability, T/C [5]: 58.6% | viability, T/C [6]: 53.3% | viability, T/C [7]: 104% | viability, T/C [8]: 97.1% | viability, T/C [9]: 71.1% | viability, T/C [10]: 57.1% | viability, T/C [11]: 57% | viability, T/C [12]: 47% | viability, T/C [13]: 104% | viability, T/C [14]: 99.9% | viability, T/C [15]: 66% | viability, T/C [16]: 56.4% | viability, T/C [17]: 63.1% | viability, T/C [18]: 47.5% | viability, T/C [19]: 99.2% | viability, T/C [20]: 93.3% | viability, T/C [21]: 67.3% | viability, T/C [22]: 64% | viability, T/C [23]: 55.5% | viability, T/C [24]: 51.5% | viability, T/C [25]: 96.3% | viability, T/C [26]: 85.3% | viability, T/C [27]: 76.8% | viability, T/C [28]: 56.1% | viability, T/C [29]: 56.1% | viability, T/C [30]: 52.6% | viability, T/C [31]: 102% | viability, T/C [32]: 80.8% | viability, T/C [33]: 65.6% | viability, T/C [34]: 56.5% | viability, T/C [35]: 58.3% | viability, T/C [36]: 50%
